Patent US12629382B2, “Therapy” (Vestlandets Innovasjonsselskap AS, priority 2019, dated 2026)

Experiments:
Assay type in all cases: cell-based
MCF7 = assay: Intracellular GSH, GSH-Glo assay, MCF7 cells; details: Homo sapiens, 48 h, normalized to untreated control; for activity at 250 µM: 250 μM compound, read-out: Intracellular GSH level MCF7 250 μM; for activity at 500 µM: 500 μM compound, read-out: Intracellular GSH level MCF7 500 μM
Experimental: (§1) The cancer cell lines A172, A375, U87 and MCF7 were purchased from American Type Culture Collection (ATCC; Manassas, Va., USA). Cells were cultured in Dulbecco's Modified Eagle's Medium (DMEM) supplemented with 10% fetal bovine serum, 2% v/v L-glutamine, 3.2% v/v non-essential amino acids, antibiotics 2% v/v (penicillin-streptomycin), and 0.02% v/v Plasmocin at 37° C. and 5% CO2.
(§2) xCT expression of cancer cell lines was evaluated by western blotting from protein samples of cell lysates as described in Sleire et al., Oncogene 34: 5951-5959, 2015. Protein concentrations were determined by BCA assay (Thermo Fisher Scientific, USA) followed by SDS PAGE and immunoblotting using rabbit anti-xCT (Thermo Fisher Scientific) and rabbit anti-GAPDH (Abcam, Cambridge, UK) as a loading control. The compounds were dissolved in dimethylsulfoxide (DMSO) (Sigma Aldrich, Germany) and stock concentrations of 100 mM were stored at −20° C. in aliquots. Final concentrations were made in growth medium before adding to the cell monolayers.
(§3) The compounds were evaluated based on the measurement of intracellular Glutathione (GSH) which was performed by the GSH-Glo assay (Promega, Madison, WI, USA, cat #V6912) according to the manufacturer's recommended procedures. 5000 cells per well were seeded in a flat bottomed 96-well plate. After attachment to the well surface, cells were exposed to 250 μM and 500 μM of each compound for 48 h. After that, GSH-Glo reagent was added followed by short incubation and addition of luciferin detection reagent. Bioluminescence was measured using a luminometer (Victor 3 1420 multi-label counter, Perkins Elmer, Waltham, MA, USA). IC50 doses for the compounds SAS, DC10 and DC14 were determined in A172 glioma cells, using the GraphPad Prism v6 software (GraphPad Software, Inc. CA, USA). All measurements were normalized to the untreated control and were performed three times.

A375 = assay: Intracellular GSH, GSH-Glo assay, A375 cells; details: Homo sapiens, 48 h, normalized to untreated control; for activity at 250 µM: A-375, 250 μM compound, read-out: Intracellular GSH level A375 250 μM; for activity at 500 µM: A-375, 500 μM compound, read-out: Intracellular GSH level A375 500 μM
Experimental: as §1, §2, §3

A172 glioma cells = assay: Intracellular GSH, GSH-Glo assay, A172 cells; details: Homo sapiens, 48 h, normalized to untreated control; for activity at 250 µM: A 172, 250 μM compound, read-out: Intracellular GSH level A172 250 μM; for activity at 500 µM: A 172, 500 μM compound, read-out: Intracellular GSH level A172 500 μM
Experimental: as §1, §2, §3

U87 = assay: Intracellular GSH, GSH-Glo assay, U87 cells; details: Homo sapiens, U-87 MG, 48 h, normalized to untreated control; for activity at 250 µM: 250 μM compound, read-out: Intracellular GSH level U87 250 μM; for activity at 500 µM: 500 μM compound, read-out: Intracellular GSH level U87 500 μM
Experimental: as §1, §2, §3

Compound | activity at 250 µM (MCF7) [%] | activity at 500 µM (MCF7) [%] | activity at 250 µM (A375) [%] | activity at 500 µM (A375) [%] | activity at 250 µM (A172 glioma cells) [%] | activity at 500 µM (A172 glioma cells) [%] | activity at 250 µM (U87) [%] | activity at 500 µM (U87) [%]
COc1ccc(/C=C\c2ccccc2)cc1C(=O)O [DC03, (Z)-2-methoxy-5-styrylbenzoic acid] | 94.9 | 49.4 | 68.6 | 47.6 | 77.5 | 68.2 | 87.9 | 88.4
CC(=O)Nc1ccc(/C=C/c2ccccc2)cc1C(=O)O [DC16, (E)-2-acetamido-5-styrylbenzoic acid] | 92.4 | 83.7 | 34.5 | 26.4 | 67.3 | 51.7 | 73.5 | 63.2
O=C(O)c1cc(-c2ccc(-c3ccccc3)cc2)ccc1O [DC17, 4-hydroxy-[1,1′:4′,1″-terphenyl]-3-carboxylic acid] | 51.7 | 17 | 56.6 | 4.6 | 98.4 | 28.7 | 66.2 | 20.2
O=C(O)c1cc(/C=C/c2cccc(-c3ccccc3)c2)ccc1O [DC18, (E)-5-(2-([1,1′-biphenyl]-3-yl)vinyl)-2-hydroxybenzoic acid] | 54.6 | 4.8 | 53.7 | 3.4 | 74 | 3.7 | 66.5 | 4.6
COc1ccc(/C=C/c2ccccc2)cc1C(=O)O [DC01, (E)-2-methoxy-5-styrylbenzoic acid] | 93.8 | 66.5 | 60.5 | 43.1 | 84.6 | 76.2 | 76.6 | 79.6
COc1ccc(C#Cc2ccccc2)cc1C(=O)O [DC04, 2-methoxy-5-(phenylethynyl)benzoic acid] | 91.4 | 68 | 63.4 | 42.4 | 86.9 | 77.6 | 80.6 | 88.6
O=C(O)c1cc(/C=C/c2ccc(F)cc2)ccc1O [DC07, (E)-5-(4-fluorostyryl)-2-hydroxybenzoic acid] | 22.1 | 6.9 | 23.8 | 7.8 | 81.6 | 16.8 | 50.4 | 11.7
Oc1ccc(/C=C/c2ccccc2)cc1-c1nnn[nH]1 [DC15, (E)-4-styryl-2-(1H-tetrazol-5-yl)phenol] | 75.8 | 32.6 | 53.3 | 46.4 | 55.1 | 9.7 | 104 | 50.4
CSc1ccc(/C=C/c2ccc(O)c(C(=O)O)c2)cc1 [DC08, (E)-2-hydroxy-5-(4-(methylthio)styryl)benzoic acid] | 21.1 | 6.6 | 25.9 | 3.7 | 28.8 | 9.3 | 51.1 | 8.4
O=C(O)c1cc(/C=C/c2ccccc2-c2ccccc2)ccc1O [DC19, (E)-5-(2-([1,1′-biphenyl]-2-yl)vinyl)-2-hydroxybenzoic acid] | 51 | 4.3 | 47.8 | 3.7 | 58.7 | 3.3 | 64.6 | 5
CS(=O)(=O)c1ccc(/C=C/c2ccc(O)c(C(=O)O)c2)cc1 [DC13, (E)-2-hydroxy-5-(4-(methylsulfonyl)styryl)benzoic acid] | 88.3 | 76.6 | 74.3 | 59.7 | 94.1 | 81.6 | 105 | 103
COc1ccc(-c2ccc3ccccc3c2)cc1C(=O)O [DC05, 2-methoxy-5-(naphthalen-2-yl)benzoic acid] | 82.4 | 39 | 47.6 | 37.9 | 75.6 | 57.7 | 42.9 | 39.5
O=C(O)c1cc(/C=C/c2ccccc2)ccc1O [DC02, (E)-2-hydroxy-5-styrylbenzoic acid] | 47.4 | 15.9 | 50.4 | 32 | 90.9 | 41 | 82.2 | 66.9
O=C(O)c1cc(/C=C/c2ccc(S(=O)(=O)Nc3ccccc3)cc2)ccc1O [DC14, (E)-2-hydroxy-5-(4-(N-phenylsulfamoyl)styryl)benzoic acid] | 25.9 | 1.8 | 4.5 | 2 | 23.1 | 2.4 | 18 | 1.9
Nc1ccc(/C=C/c2ccccc2)cc1C(=O)O [DC12, (E)-2-amino-5-styrylbenzoic acid] | 116 | 96.5 | 116 | 95.6 | 107 | 101 | 104 | 117
CC1(C)c2ccccc2-c2ccc(/C=C/c3ccc(O)c(C(=O)O)c3)cc21 [DC21, (E)-5-(2-(9,9-dimethyl-9H-fluoren-2-yl)vinyl)-2-hydroxybenzoic acid] | 5.7 | 4.2 | 4.2 | 3.3 | 4.9 | 2.8 | 5 | 3.8
Cc1cc(O)c(C(=O)O)c(C)c1-c1ccc2ccccc2c1 [DC20, 6-hydroxy-2,4-dimethyl-3-(naphthalen-2-yl)benzoic acid] | 40.5 | 9.7 | 63.1 | 4.6 | 82.1 | 11.9 | 61.1 | 6.1
O=C(O)c1cc(-c2ccc3ccccc3c2)ccc1O [DC11, 2-hydroxy-5-(naphthalen-2-yl)benzoic acid] | 23.7 | 8.8 | 36.1 | 11.8 | 28.4 | 10.2 | 62.6 | 22.7
